Data set [1] can be described thus: Urinary recovery of carbapenem antibiotics combined with DHP-I inhibitor. Format: in vivo, ICR mice. The settings on record: for dose excreted: mouse, urine, iv, 1 mg/kg, antibiotic 1 mg/kg i.v., ICR mice. As to the method:
The effect of the test compound No.1 on urinary recovery of carbapenem antibiotics simultaneously administrated was determined. Urinary recovery percent was calculated by measuring a quantity of antibiotics excreted in urine using bioassay, when antibiotics and DHP-I inhibitor were combined and intravenously injected to ICR mice (female, 4 weeks old, 4 animals per group).

Data set [2] can be described thus: Solubility. Format: physicochemical. The conditions noted are these: disodium salt.
In data set [3] the target is T1, DHP-I (renal dipeptidase) (Sus scrofa, UniProt P22412).
T1 construct: Fresh kidney cortex was cut into pieces and homogenized in a Waring blender; from tissue; host or cells: kidney cortex (pig), n-butanol extraction, ammonium sulfate fraction 50-75%
T1 sequence (P22412 17-409): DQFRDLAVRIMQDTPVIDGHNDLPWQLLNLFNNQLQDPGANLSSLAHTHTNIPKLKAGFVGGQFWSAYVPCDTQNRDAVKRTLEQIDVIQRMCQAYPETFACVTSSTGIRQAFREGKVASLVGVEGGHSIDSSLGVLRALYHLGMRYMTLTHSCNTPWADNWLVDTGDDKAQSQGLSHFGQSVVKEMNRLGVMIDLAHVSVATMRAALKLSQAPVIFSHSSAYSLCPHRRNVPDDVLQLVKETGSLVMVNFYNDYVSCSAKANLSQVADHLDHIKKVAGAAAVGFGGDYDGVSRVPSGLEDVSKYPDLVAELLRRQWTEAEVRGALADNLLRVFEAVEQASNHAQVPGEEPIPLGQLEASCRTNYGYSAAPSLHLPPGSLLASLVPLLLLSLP
The experiment in a line: Inhibition of DHP-I activity, porcine DHP-I. The data set is classed as biochemical. The conditions noted are these: glycyldehydrophenylalanine substrate. Here is the method: (§1) DHP-I (renal dipeptidase) were partially purified from several species of animals by B. J. Cambell (Methods in Enzymology, (1970) Vol. 19,722). Fresh kidney cortex was cut into pieces and homogenized in a Waring blender with an equal volume of 1/15M phosphate buffer (pH 8.0). The homogenate was filtrated on gauze to remove cellular debris. n-Butanol chilled to 0° C., was added to a concentration of 20% by volume with rapid stirring. The suspension was stirred with a magnetic stirrer for overnight at 4° C. to dissolve DHP-I. The resultant emulsion was then dialyzed against several changes of distilled water. To the dialyzate was added solid ammonium sulfate to 50% saturation at 0° C. The precipitate formed was collected by centrifugation at 4500 g for 1 hour and discarded. Solid ammonium sulfate was then added to the supernatant to 75% saturation, the suspension was centrifuged at 10,000 g for 1 hour. The sediment was dissolved in a small volume of distilled water and dialyzed against distilled water. […]
(§2) Activity of DHP-I was measured by mean of using the unsaturated dipeptide, glycyldehydrophenylalanine as substrate. […] Inhibitory effect of the test compound on DHP-I activity was measured. Inhibition percent, I(%), was calculated as followed, I(%)=(E-T)/Ex100, where E was DHP-I activity without test compound (Control), T was DHP-I activity with test compound.

Data set [4] has as its target T2, DHP-I (renal dipeptidase) (Oryctolagus cuniculus, UniProt P31429).
T2 construct: Fresh kidney cortex was cut into pieces and homogenized in a Waring blender; from tissue; host or cells: kidney cortex (rabbit), n-butanol extraction, ammonium sulfate fraction 50-75%
T2 sequence (P31429 17-410): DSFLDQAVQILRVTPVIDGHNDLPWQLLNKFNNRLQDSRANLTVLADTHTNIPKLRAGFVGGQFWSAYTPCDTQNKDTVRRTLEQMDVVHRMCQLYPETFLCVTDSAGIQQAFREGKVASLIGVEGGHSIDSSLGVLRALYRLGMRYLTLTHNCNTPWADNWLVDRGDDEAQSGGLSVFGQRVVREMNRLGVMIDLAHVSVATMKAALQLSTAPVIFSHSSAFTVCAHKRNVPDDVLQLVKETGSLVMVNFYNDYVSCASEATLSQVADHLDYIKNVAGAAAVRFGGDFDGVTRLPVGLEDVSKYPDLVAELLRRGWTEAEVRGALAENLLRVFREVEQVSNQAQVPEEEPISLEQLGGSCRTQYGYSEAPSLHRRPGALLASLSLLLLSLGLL
The experiment in a line: Inhibition of DHP-I activity, rabbit DHP-I. The settings on record: glycyldehydrophenylalanine substrate. The data set is classed as biochemical. Here is the method:
as §1, §2

Data set [5] deals with carboxypeptidaseA (CPaseA). The experiment in a line: Effect on other metalloenzymes: carboxypeptidase A. Format: biochemical. The conditions noted are these: at 50,000 ng/ml; bovine pancreas enzyme. Here is the method:
(§3) DHP-I is a metalloenzyme with the zinc atom. To clarify the specific inhibitors activity of the test compound on DHP-I, the effect of the test compound on other metalloenzymes containing zinc, carboxypeptidaseA (CPaseA), leucineaminopeptidase (LAP), was determined.
Activity of CPaseA from bovine pancreas (Type II-DEF, made by Sigma Chemical Co.) was measured by mean of using carbobenzoxyglycyl-L-phenylalanine (made by Peptide Institute, Inc., Osaka, Japan) as substrate. Enzymatic hydrolysis was followed by observing the fall in optical density at 224 nm.

The subject of data set [6] is leucineaminopeptidase (LAP). The experiment in a line: Effect on other metalloenzymes: leucineaminopeptidase. The data set is classed as biochemical. The conditions noted are these: at 50,000 ng/ml; porcine kidney microsomes enzyme. Here is the method: as §3
Activity of LAP from porcine kidney microsomes (Type IV-S, made by Sigma Chemical Co.) was measured by . mean of using L-leucine-p-nitroanilide (made by Peptide Institute, Inc.) as substrate. Enzymatic hydrolysis was followed by observing the increase in optical density at 405 nm.

The test system of data set [7] is Escherichia coli. The experiment in a line: Antimicrobial activity, paper disk diffusion method. The data set is classed as cell-based. The settings on record: at 1 mg/ml. Here is the method: (§4) Antimicrobial activity of the test compounds No.1 and No.2. was measured by paper disk diffusion method in a conventional manner.
Background: In agar diffusion tests the substance spreads into inoculated agar from a disc or well.

In data set [8] the test system is Staphylococcus aureus. The data set is described as above. Format: cell-based. The settings on record: at 1 mg/ml. As to the method: as §4
Data set [9] has as its system ICR mice. The experiment in a line: Acute toxicity, single intravenous injection. The settings on record: 1 g/kg single intravenous, female, 4 weeks old. The data set is classed as in vivo. Here is the method: The acute toxicity of the test compound No.1 was determined to ICR mice (female, 4 weeks old) by a single intravenous injection.
For data set [10], the system named is Staphylococcus aureus 47. The experiment in a line: Protective effect of carbapenem antibiotic combined with DHP-I inhibitor on mice infection. The conditions noted are these: Test compound No. 4 alone 10 mg/kg s.c., 1 hour after challenge; ICR mice. Format: in vivo. Here is the method: The combined effect of DHP-I inhibitor of this invention with the carbapenem antibiotic, on mice infection was determined. ICR mice (female, 4 weeks old, 5 animals per group) were intraperitoneally injected with 4×10^8 Staphylococcus aureus 47 suspended in 5% mucin. Combined therapies were administrated subcutaneously 1 hour after challenge.

For data set [11] the following is noted: literature; cited from earlier work.
Where [12] appears, read: with Test compound No. 1, 0.5 mg/kg.
[13] abbreviates: with Test compound No. 1, 1 mg/kg.
[14] abbreviates: with Test compound No. 1, 2 mg/kg.

Molecules are shown by their SMILES.

As to `C[C@@H](O)[C@H]1C(=O)N2C(C(=O)O)=C(SCCNC=N)CC12` (some centres unmarked) [Test compound No. 3], the dose excreted in [1] (inhibitor: None) worked out at 44.1 ± 0.6%; in data set [1] (setting [12]), 66.1 ± 3%; in [1] (setting [13]) it was 63.8 ± 7.3%; in [1] (setting [14]), 65.4 ± 9.5%.

Regarding `O=C(O)CCC(O)(C(=O)O)C(=O)NO` (centres unmarked) [WS-1358B], in data set [2], the Solubility in acetone result is listed as “Insoluble”, the Solubility in chloroform entry is given as “Insoluble”, the Solubility in ethanol entry is listed as “Sparingly Soluble” and the “Solubility in ethyl acetate” value was “Insoluble”. Besides, in data set [2], the Solubility in hexane entry was “Insoluble”, the Solubility in methanol result is on record as “Sparingly Soluble” and the Solubility in water result is given as “Soluble”.

The IC50 is the concentration that inhibits the measured activity by half. The low end stands for greater potency, the high end for weaker potency. As for `CC(CC(=O)O)C(O)(C(=O)O)C(=O)NO` (centres unmarked) [Test compound No. 1], the IC50 in [3] was 4.97 nM; in [4], 49.7 nM. Moreover, the “Inhibitory effect on CPaseA” value in data set [5] is reported as “no inhibitory effect”. Besides, the “Inhibitory effect on LAP” value in data set [6] is “no inhibitory effect”. Moreover, the Antimicrobial activity entry in [7] and in data set [8] was “no antimicrobial activity” throughout. For the same compound, in data set [9], the “Acute toxicity, toxic symptom” value is given as “No toxic symptom was observed”. In addition, in data set [1] (effect of inhibitor on test compound No. 3 and 4 (1 mg/kg), in words), the “Effect on urinary recovery of the carbapenem antibiotics” value is recorded as “significantly increased urinary recovery”.

Consider `C[C@@H](O)[C@H]1C(=O)N2C(C(=O)O)=C(S[C@@H]3CN[C@H](COC(N)=O)C3)CC12` (some centres unmarked) [Test compound No. 4], for which the dose excreted was 29.3 ± 2.8% in data set [1] (inhibitor: None), 51.4 ± 3.9% in data set [1] (setting [12]), 57.8 ± 1.3% in data set [1] (setting [13]) and 71.9 ± 9.5% in [1] (setting [14]). Moreover, in data set [10], the “Survived/Treated (Test mice)” value is listed as 0/5.

With `CC1(C)C[C@@H]1C(=O)N/C(=C\CCCCSC[C@H](N)C(=O)O)C(=O)O` [cilastatin], in [11], the “Urinary recoveries of the carbapenem antibiotics (e.g. imipenem)” value was “improving urinary recoveries”.

As to `O=C(O)CCC(O)(C(=O)O)C(=O)NO` (centres unmarked) [Test compound No. 2], the values for the IC50 in data set [3] and in [4] were 531 nM and 2410 nM, respectively. The “Inhibitory effect on CPaseA” value in data set [5] is “no inhibitory effect”. Further, the “Inhibitory effect on LAP” value in [6] is “no inhibitory effect”. In addition, the Antimicrobial activity entry in data set [7] and in data set [8] was “no antimicrobial activity” throughout.

In the case of `CC(CC(=O)O)C(O)(C(=O)O)C(=O)NO` (centres unmarked) [WS-1358A, 2-hydroxy-2-(hydroxycarbamoyl)-3-methylglutaric acid], in data set [2], the Solubility in acetone entry is listed as “Insoluble”, the Solubility in chloroform result is recorded as “Insoluble”, the Solubility in ethanol entry was “Sparingly Soluble” and the “Solubility in ethyl acetate” value is recorded as “Insoluble”. Moreover, in data set [2], the Solubility in hexane entry was “Insoluble”, the Solubility in methanol entry is “Sparingly Soluble” and the Solubility in water entry is reported as “Soluble”.
